1 compound from patent US5608143A, “External regulation of gene expression” (E. I. Du Pont de Nemours and Company, priority 1994, dated 1997) can be followed below.

One assay concerns 2-2 gene (In 2-2 mRNA). Briefly: RNA slot blot / Northern analysis of 2-2 mRNA in roots of chemically treated corn. Format: in vivo, corn (Missouri 17). The arrangement: In2-2 induction level: key to the marks not given beside the values. The protocol:
Details of the techniques used to perform the procedures used in Example 2 are presented in Example 1. The cDNA library made using poly(A)^+ RNA from the roots of N-(aminocarbonyl)-2-chlorobenzenesulfonamide-treated Missouri 17 corn plants (described in Example 1) was analyzed for additional cDNA clones representing mRNAs induced by substituted benzenesulfonamides. […] This colony was designated In 2-2.
A small scale plasmid preparation was performed on the plasmid contained in colony In 2-2. This plasmid was designated pIn 2-2. An aliquot of pIn 2-2 was nick translated as described earlier. A slot blot containing total RNA from N-(aminocarbonyl)-2-chlorobenzenesulfonamide-treated and untreated roots was prepared and probed with nick-translated pIn 2-2 as described for pIn 2-1 in Example 1.
The pIn 2-2 small scale plasmid preparation was digested to completion with Pst I and analyzed by agarose gel electrophoresis. The cDNA insert of the plasmid was excised by Pst I as a single 1200 bp fragment. Nick-translatedpIn 2-2 was used to probe a Northern blot of RNA from both untreated and N-(aminocarbonyl)-2-chlorobenzenesulfonamide-treated roots.
The ability at various substituted benzenesulfonamides and related compound to induce the expression of the 2-1, 2-2, and 5-2 genes of Missouri 17 corn was evaluated. Corn seeds were germinated and grown hydroponically in 2 liter beakers as described in Example 1. On the tenth day, plants were transferred into fresh 0.5× Hoagland's solution containing the chemical to be tested. Root tissue was harvested from the plants after six hours of chemical treatment, quick-frozen by immersion in liquid N2, and stored at -80° C. until analyzed.
Details of the RNA isolation and slot blot analysis procedures are presented in Example 1. Total RNA was prepared from the root tissue of plants that had been treated with various chemicals using the previously described guanidine thiocyanate procedure. Replicate blots, each consisting of 2 μg of total RNA from tissues treated with each of the chemicals shown in tables 8 and 9, were prepared on nitrocellulose membranes using a Minifold II® Slot-blotter (Schleicher & Schuell) following the manufacturer's recommeneded procedure. Replicate blots were prehybridized and hybridized with cDNA probes made by nick translation of the purified cDNA inserts from plasmid pIn 2-1, pIn 2-2-3, and pIn 5-2. Slot blots were washed as described in Example 1 and exposed to Kodak X-OMAT XAR-5 film for 24 hours at -80° C. using a single Du Pont Lightning Plus intensifying screen. Film was developed using a Kodak X-OMAT film processor. The abililty of a chemical to induce the mRNA encoded by the three inducible genes was evaluated in one of two ways. Qualitative evaluation was performed by direct visual comparison of the autoradiographic signal intensities on the films for the hybridization of each probe to the different RNA samples. Quantitative evaluation was performed by cutting each slot containing hybridized RNA from the blot, immersing it in 2 ml of Du Pont ECONOFLUOR® scintillation cocktail and counting the radioactivity in each slot in a scintillation counter. The net amount of radioactivity hybridizing to N-(aminocarbonyl)-2-chlorobenzenesulfonamide-treated RNA after subtraction of radioactivity hybridizing to untreated RNA is presented in Table 15.

Assay [1] relates to petunia P6.1 gene (and endogenous tobacco T2.1 gene). As to the kind of experiment: RNAse protection analysis of petunia P6.1 gene expression in transgenic tobacco roots and callus. Format: in vivo, tobacco (SR1). The protocol: Tobacco (SR1) was used as the recipient for transformation. In vitro grown leaf material was sliced into strips using a scalpel. The strips were dipped into Agrobacterium tumefaciens containing the construct P627 (bacterial concentration was 0.2 A550). Leaf pieces were placed on media containing MS major salts, MS minor salts, B5 vitamins, MS iron, 3% sucrose, 0.1 μg/l NAA, […], 0.7% TC agar, pH 5.8 and incubated for 2-3 days under growlights. Leaf material was removed and washed by placing in liquid culture medium containing […] and rotating gently for 3-4 hours. The leaf pieces were then placed on medium containing 100 μg/l carbinicillin and 300 mg/l kanamycin and transferred every 2 weeks. Shoots appeared after 2-8 weeks and were transferred to rooting medium (0.5× MS major salts, MS minor salts, iron, 1% sucrose, 0.8% agar, and 2 μM indolebutyric acid). Eight independent transformed plants were regenerated. […]
The inducibility of the P6.1 gene was also examined in callus tissue derived from transformed tobacco plants. […] The inducibility of both the introduced petunia P6 gene and the endogenous tobacco T2.1 gene by N-(aminocarbonyl)-2-chlorobenzanesulfonamide treatment was evaluated using the RNAse protection analysis as described above. […]

The mark [2] stands for this setting: hydroponic treatment, corn roots.

With `NC(=O)NS(=O)(=O)c1ccccc1Cl`, the In2-2 induction level result in the assay with 2-2 gene (In 2-2 mRNA) (hydroponic application, 100 ppm) is given as “+++++”. In addition, in the assay with 2-2 gene (In 2-2 mRNA) (setting [2]), the “hybridization of pIn 2-2 to root RNA (Northern blot)” value is listed as “present only in RNA from the roots” and the “hybridization of pIn 2-2 to root RNA (slot blot)” value is given as “hybridizes strongly”. Moreover, the “expression of petunia P6 gene and endogenous tobacco T2.1 gene in callus (RNAse protection)” value in assay [1] (callus from transformed tobacco, 100 mg/l, 6 and 20 hours) is on record as “strong expression of both genes was observed”. Also, in assay [1] (transgenic tobacco (P627), hydroponic 200 mg/l, six hours), the “inducible expression of the transferred petunia P6.1 gene in roots (RNAse protection)” value is on record as “All eight transformants demonstrated inducible expression”.
